# Earlier results in US11980701B2, “Joint implant with constant and continuous release of therapeutic agent” (Diffusion RX, Inc., priority 2021, dated 2024).
# Assays:
# [1] = system: articular joint pain/inflammation; settings: known treatments
# cartilage = settings: at low doses
Compound,length of effectiveness (FIG. 5A) [1],cartilage effect in in vivo studies (cartilage)
"C[C@]12CCC(=O)C=C1CC[C@@H]1[C@@H]2C(=O)C[C@@]2(C)[C@H]1CC[C@]2(O)C(=O)CO [cortisone shot, cortisone]",six to twelve,–
C[C@]12C=CC(=O)C=C1CC[C@H]1[C@@H]3C[C@@H](O)[C@](O)(C(=O)CO)[C@@]3(C)C[C@H](O)[C@@]12F [triamcinolone],–,significant cartilage protection
C[C@]12CCC(=O)C=C1CC[C@@H]1[C@@H]2[C@@H](O)C[C@@]2(C)[C@H]1CC[C@]2(O)C(=O)CO [hydrocortisone],–,significant cartilage protection
